Data on 3 compounds can be found in US20120083489A1, “BIS-PYRIDYLPYRIDONES AS MELANIN-CONCENTRATING HORMONE RECEPTOR ANTAGONISTS” (priority 2009, published 2012).

The target of the assay is T1, hMCHR1 (Homo sapiens, UniProt Q99705).
T1 construct: expressed in transfected cells; host or cells: HEK293
T1 sequence (Q99705 whole entry): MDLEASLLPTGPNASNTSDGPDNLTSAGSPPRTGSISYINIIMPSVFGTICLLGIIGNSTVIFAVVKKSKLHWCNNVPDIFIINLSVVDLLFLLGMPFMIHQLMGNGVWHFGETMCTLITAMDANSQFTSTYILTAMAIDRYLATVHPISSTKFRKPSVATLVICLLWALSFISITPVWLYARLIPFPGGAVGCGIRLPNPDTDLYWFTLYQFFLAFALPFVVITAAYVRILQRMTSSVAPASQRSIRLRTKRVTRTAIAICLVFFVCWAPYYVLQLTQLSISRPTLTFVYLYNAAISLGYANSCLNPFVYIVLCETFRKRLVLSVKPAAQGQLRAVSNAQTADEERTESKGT
As to the kind of experiment: MCHR1 pIC50 determination FLIPR assay. The assay is classed as cell-based. The note with it: HEK293 cells stably transfected with hMCHR1; MCH challenge at 4xEC50. On the procedure: MCHR1 plC50 Determination FLIPR™Assay: HEK293 cells stably transfected with hMCHR1 were propagated as adherent cultures at 37° C. in a humidified incubator. Cells were split 1:8 at 90% confluency two times per week. New cell stocks were recovered from storage every two months. Cells were plated in black 384-well plates (Greiner) 24 hours prior to assay at 15,000 cells/well in 50 μL DMEM/F12, 10% FBS, 2 mM I-glutamine. Compounds to be profiled were prepared by making a stock solution at 3×10^−3M in 100% DMSO. The stock solutions were serially diluted 1:4 in 100% DMSO using JANUS (PerkinElmer) liquid handling instrument to allow for an 11 point curve in singlicate. At the time of the assay, the media was removed from the cell plate by aspiration, followed by the addition of 20 μL of loading buffer (Calcium 4 Kit, […]). Following 50 min incubation at 37° C., 10 μL of compound was added to the plates via the FLIPR™ instrument (Molecular Dynamics corporation). The plates were incubated at room temperature for 15 minutes along with an MCH peptide agonist challenge plate. On the FLIPR™, a basal response was collected over 10 seconds followed by the addition of 10 μL of MCH challenge concentration at 4×EC50. Data was collected over 4 minutes and subjected to a nonlinear regression analysis curve fitting program to generate plC50s.
By IC50 is commonly meant the concentration that inhibits the measured activity by half. The low end stands for greater potency, the high end for weaker potency. Turning to `CCN(CC)CCNc1ccc(-n2ccc(OCc3ccc(Cl)cn3)cc2=O)cn1` [Example 8], the IC50 stood at 25 nM.

Compound `CS(=O)(=O)NCCNc1ccc(-n2ccc(OCc3ccc(Cl)cn3)cc2=O)cn1` [Example 20] had an IC50 of 50 nM.

The compound `CCS(=O)(=O)NCCNc1ccc(-n2ccc(OCc3ccc(Cl)cn3)cc2=O)cn1` [Example 27] gave an IC50 of 90 nM.
